# Experimental data published in PubChem BioAssay AID330 (DTP/NCI, 2004).
# Values joined by “and” are separate entries in the source; they are usually repeats but may differ in a detail not shown here. Identical values can stand only once. Toxic doses and inconclusive results are not listed.
# Test system: P388 leukemia ip, CD2F1 mice, survival T/C
# Test: NCI In Vivo Anticancer Drug Screen. Data for tumor model P388 Leukemia (intraperitoneal) in CD2F1 (CDF1) mice
# Conditions: endpoint: median survival time, higher = longer survival
# In short: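 Mice carrying the transplanted tumor received test compound or vehicle. Survival was recorded in each group, and the value is the treated-group measurement divided by that of the vehicle-treated control group.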
# [1] = dose: 50.0 mg/kg/injection, schedule: Q01DX005 (ip), vehicle: saline with Tween-80
# [2] = dose: 100.0 mg/kg/injection, schedule: Q01DX005 (ip), vehicle: saline with Tween-80
# [3] = dose: 200.0 mg/kg/injection, schedule: Q01DX005 (ip), vehicle: saline with Tween-80
# [4] = dose: 100.0 mg/kg/injection, schedule: Q04DX003 (ip), vehicle: saline
# [5] = dose: 200.0 mg/kg/injection, schedule: Q04DX003 (ip), vehicle: saline
# [6] = dose: 400.0 mg/kg/injection, schedule: Q04DX003 (ip), vehicle: saline
# [7] = dose: 50.0 mg/kg/injection, schedule: Q01DX005 (ip), vehicle: Klucel (hydroxypropylcellulose) (HPC)
# [8] = dose: 100.0 mg/kg/injection, schedule: Q01DX005 (ip), vehicle: Klucel (hydroxypropylcellulose) (HPC)
# [9] = dose: 200.0 mg/kg/injection, schedule: Q01DX005 (ip), vehicle: Klucel (hydroxypropylcellulose) (HPC)
smiles,measurement,setting,value
CC(=O)C(=N/O)/C(C)=N/NC(=O)c1ccncc1,T/C,"dose: 100.0 mg/kg/injection, schedule: Q04DX002 (ip), vehicle: saline",106 % of control
same,T/C,"dose: 200.0 mg/kg/injection, schedule: Q04DX002 (ip), vehicle: saline",103 % of control
same,T/C,"dose: 400.0 mg/kg/injection, schedule: Q04DX002 (ip), vehicle: saline",102 % of control
CC(C)([NH-])CO.CC(C)([NH-])CO.[Cl][Cd][Cl],T/C,"dose: 3.13 mg/kg/injection, schedule: Q01DX009 (ip), vehicle: saline",91 % of control
same,T/C,"dose: 6.25 mg/kg/injection, schedule: Q01DX009 (ip), vehicle: saline",91 % of control
CCOC(=O)c1ccc2c(=O)[nH]nc(CO)c2c1,T/C,[1],104 % of control
same,T/C,[2],102 % of control
same,T/C,[3],96 % of control
CNC(=O)OCc1c(COC(=O)NC)c(-c2ccccc2)n(C)c1C,T/C,"dose: 50.0 mg/kg/injection, schedule: Q01DX009 (ip), vehicle: distilled water + Tween-80",90 % of control
Cn1c2nc(-[n+]3ccc(N4CCOCC4)cc3)nc-2c([O-])n(C)c1=O,T/C,[4],100 % of control
same,T/C,[5],101 % of control
same,T/C,[6],100 % of control
CC1NC(=O)C2Cc3ccc(O)c(c3)Oc3cccc(c3)C(O)C(C(=O)N2C)N(C)C(=O)C(C)NC(=O)C(Cc2ccc(O)c(O)c2)N(C)C(=O)C(C)NC1=O (centres undefined),T/C,"dose: 16.0 mg/kg/injection, schedule: Q01DX009 (ip), vehicle: distilled water + Tween-80",112 % of control
same,T/C,"dose: 32.0 mg/kg/injection, schedule: Q01DX009 (ip), vehicle: distilled water + Tween-80",112 % of control
same,T/C,"dose: 64.0 mg/kg/injection, schedule: Q01DX009 (ip), vehicle: distilled water + Tween-80",122 % of control
C=C1CCN(c2ccc(Br)cc2)C1=O,T/C,"dose: 4.0 mg/kg/injection, schedule: Q01DX009 (ip), vehicle: saline + alcohol",104 % of control
same,T/C,"dose: 8.0 mg/kg/injection, schedule: Q01DX009 (ip), vehicle: saline + alcohol",92 % of control
same,T/C,"dose: 16.0 mg/kg/injection, schedule: Q01DX009 (ip), vehicle: saline + alcohol",98 % of control
same,T/C,"dose: 32.0 mg/kg/injection, schedule: Q01DX009 (ip), vehicle: saline + alcohol",91 % of control
same,T/C,"dose: 64.0 mg/kg/injection, schedule: Q01DX009 (ip), vehicle: saline + alcohol",98 % of control
CCC(NN)C(=O)OCc1ccccc1 (centres undefined),T/C,[7],97 % of control
same,T/C,[8],95 % of control
same,T/C,[9],103 % of control
CC(C)(Br)C(=O)N1CCN(C(c2ccccc2)c2ccccc2)CC1,T/C,"dose: 60.0 mg/kg/injection, schedule: Q01DX005 (ip), vehicle: saline with Tween-80",92 % of control
same,T/C,"dose: 120.0 mg/kg/injection, schedule: Q01DX005 (ip), vehicle: saline with Tween-80",91 % of control
same,T/C,"dose: 240.0 mg/kg/injection, schedule: Q01DX005 (ip), vehicle: saline with Tween-80",89 % of control
COc1ccccc1C1NC(c2ccccc2OC)C2CCCC1C2 (centres undefined),T/C,[4],91 % of control
same,T/C,[5],90 % of control
same,T/C,[6],88 % of control
CN(CCC(CCC(=O)O)(C(=O)O)c1ccccc1)Cc1ccccc1 (centres undefined),T/C,[7],92 % of control
same,T/C,[8],100 % of control
same,T/C,[9],98 % of control
C/C(N)=C/C(=O)c1ccccc1,T/C,[4],102 % of control
same,T/C,[5],100 % of control
same,T/C,[6],105 % of control
CC1=C(C(=O)/C=C/c2ccccc2)C(=O)c2ccccc2C1=O,T/C,[1],95 % of control
same,T/C,[2],87 % of control
same,T/C,[3],105 % of control
COc1cc2c(c(OC)c1OC)-c1ccc(=O)c(OC)cc1[C@@H](N(C)C)CC2,T/C,"dose: 2.5 mg/kg/injection, schedule: Q01DX009 (ip), vehicle: Klucel (hydroxypropylcellulose) (HPC)",100 % of control
same,T/C,"dose: 5.0 mg/kg/injection, schedule: Q01DX009 (ip), vehicle: Klucel (hydroxypropylcellulose) (HPC)",106 % of control
same,T/C,"dose: 10.0 mg/kg/injection, schedule: Q01DX009 (ip), vehicle: Klucel (hydroxypropylcellulose) (HPC)",107 % of control
same,T/C,"dose: 20.0 mg/kg/injection, schedule: Q01DX009 (ip), vehicle: Klucel (hydroxypropylcellulose) (HPC)",110 % of control
same,T/C,"dose: 40.0 mg/kg/injection, schedule: Q01DX009 (ip), vehicle: Klucel (hydroxypropylcellulose) (HPC)",110 % of control
Cc1c([N+](=O)[O-])c(=O)oc2c(C)c3occc(=O)c3cc12,T/C,"dose: 100.0 mg/kg/injection, schedule: Q01DX001 (ip), vehicle: saline with Tween-80",89 % of control
same,T/C,"dose: 200.0 mg/kg/injection, schedule: Q01DX001 (ip), vehicle: saline with Tween-80",90 % of control
same,T/C,"dose: 400.0 mg/kg/injection, schedule: Q01DX001 (ip), vehicle: saline with Tween-80",86 % of control
CC1CC2OC(/C=C/C=C/C=C\C=C\C=C\C(O)=C3\C(=O)C(C(C)C)N(C)C3=O)C(O)C2O1 (centres undefined),T/C,"dose: 3.0 mg/kg/injection, schedule: Q01DX005 (ip), vehicle: Klucel (hydroxypropylcellulose) (HPC)",120 % of control and 124 % of control
Cc1ccc(NC(=O)Oc2cc(C)c(I)cc2C)cc1Cl,T/C,"dose: 50.0 mg/kg/injection, schedule: Q01DX009 (ip), vehicle: saline with Tween-80",112 % of control
same,T/C,"dose: 100.0 mg/kg/injection, schedule: Q01DX009 (ip), vehicle: saline with Tween-80",112 % of control
same,T/C,"dose: 200.0 mg/kg/injection, schedule: Q01DX009 (ip), vehicle: saline with Tween-80",95 % of control
CC(=O)Nc1ccc(S(=O)(=O)Oc2noc3ccc(Cl)cc23)cc1,T/C,"dose: 100.0 mg/kg/injection, schedule: Q04DX002 (ip), vehicle: Klucel (hydroxypropylcellulose) (HPC)",98 % of control
same,T/C,"dose: 200.0 mg/kg/injection, schedule: Q04DX002 (ip), vehicle: Klucel (hydroxypropylcellulose) (HPC)",98 % of control
same,T/C,"dose: 400.0 mg/kg/injection, schedule: Q04DX002 (ip), vehicle: Klucel (hydroxypropylcellulose) (HPC)",93 % of control
CCc1nc(N)nc(N)c1-c1ccc(N2CCCCC2)cc1,T/C,"dose: 7.5 mg/kg/injection, schedule: Q01DX005 (ip), vehicle: saline with Tween-80",112 % of control
same,T/C,"dose: 15.0 mg/kg/injection, schedule: Q01DX005 (ip), vehicle: saline with Tween-80",100 % of control
same,T/C,"dose: 30.0 mg/kg/injection, schedule: Q01DX005 (ip), vehicle: saline with Tween-80",99 % of control
CC(=O)OCC12CCC(C)=CC1O[C@H]1[C@@H](OC(C)=O)[C@H](OC(C)=O)[C@]2(C)[C@@]12CO2 (some centres undefined),T/C,"dose: 0.2 mg/kg/injection, schedule: Q01DX009 (ip), vehicle: saline + alcohol",115 % of control
same,T/C,"dose: 0.8 mg/kg/injection, schedule: Q01DX009 (ip), vehicle: saline + alcohol",173 % of control
same,T/C,"dose: 2.0 mg/kg/injection, schedule: Q04DX003 (ip), vehicle: saline + alcohol",120 % of control
O=C1CC2C(C1Nc1ccccc1)C1C(=Nc3ccccc3)C(Nc3ccccc3)=CC1N2c1ccccc1 (centres undefined),T/C,"dose: 7.5 mg/kg/injection, schedule: Q01DX005 (ip), vehicle: Klucel (hydroxypropylcellulose) (HPC)",100 % of control
same,T/C,"dose: 15.0 mg/kg/injection, schedule: Q01DX005 (ip), vehicle: Klucel (hydroxypropylcellulose) (HPC)",97 % of control
same,T/C,"dose: 30.0 mg/kg/injection, schedule: Q01DX005 (ip), vehicle: Klucel (hydroxypropylcellulose) (HPC)",95 % of control
C=Cc1c(C#N)nc(C)c(C)c1-c1ccc(OC)c(OC)c1OCc1ccccc1,T/C,[7],101 % of control
same,T/C,[8],95 % of control
same,T/C,[9],108 % of control
CCOC(=O)C(Cc1ccc(N(CCCl)CCCl)cc1)NC(=O)C(NC(C)=O)C(C)C (centres undefined),T/C,"dose: 5.0 mg/kg/injection, schedule: Q04DX003 (ip), vehicle: water",123 % of control
same,T/C,"dose: 20.0 mg/kg/injection, schedule: Q04DX003 (ip), vehicle: water",160 % of control
same,T/C,"dose: 40.0 mg/kg/injection, schedule: Q04DX003 (ip), vehicle: water",241 % of control
O=C1C2Nc3ccccc3N=C2OC1c1cccc([N+](=O)[O-])c1 (centres undefined),T/C,"dose: 60.0 mg/kg/injection, schedule: Q01DX005 (ip), vehicle: Klucel + Tween-80",107 % of control
same,T/C,"dose: 120.0 mg/kg/injection, schedule: Q01DX005 (ip), vehicle: Klucel + Tween-80",97 % of control
same,T/C,"dose: 240.0 mg/kg/injection, schedule: Q01DX005 (ip), vehicle: Klucel + Tween-80",91 % of control
Cn1c(=O)c2c(nc(Br)n2C)n(C)c1=O,T/C,"dose: 25.0 mg/kg/injection, schedule: Q01DX009 (ip), vehicle: Klucel (hydroxypropylcellulose) (HPC)",94 % of control
same,T/C,"dose: 50.0 mg/kg/injection, schedule: Q01DX009 (ip), vehicle: Klucel (hydroxypropylcellulose) (HPC)",109 % of control
COC1C(C)(C)C1(Br)Br (centres undefined),T/C,[1],100 % of control
same,T/C,[2],99 % of control
same,T/C,[3],98 % of control
NC(=O)N=Nc1ccc(Cl)c(Cl)c1,T/C,[1],100 % of control
same,T/C,[2],102 % of control
same,T/C,[3],102 % of control
